Columns and labels:
Caspase 3 = Caspase 3 activity in RAW macrophage 264.7 cells exposed to H2O2; type: cell-based, mouse; conditions: 1×10^−13M
Experimental: Oxidative stress can cause apoptosis, a form of cell suicide mediated by a cascade of proteolytic enzymes called caspases (cysteinyl aspartate-specific proteases). Caspase 3 is one of a number of effector caspases. Its activity was measured by means of a luminescent assay (Caspase-Glo 3/7 Assay Promega Ltd). […] The medium was aspirated 90 min later, 100 μL of DMEM was added to each well and the plates kept in an incubator overnight. Caspase-GloR Reagent (100 μL) was added to each well and the contents gently mixed using a plate shaker at 300-500 rpm for 30 sec. The plates were left at room temperature for 30 min and then luminescence of each sample was measured in a plate-reading luminometer (Cytation 3).

[1] = system: TNF-α in human macrophages; experiment: TNF-α in human macrophages after elevation by LPS (ELISA); type: cell-based
Experimental: Blood (20 ml was collected from healthy human subjects on the day of the experiment in anti-coagulant tubes and diluted in PBS 1:1. Ficol (12 mL) was added into the bottom of the tube, centrifuged slowly for 30 min at 1400 g and peripheral blood mononuclear cells (PBMCs) were separated. Monocytes were isolated by addition of 15 ml of MACS buffer. After centrifugation at 1400 g for 10 min at 4° C., the supernatant fluid was removed, monocytes were isolated by means of a MACS-Monocyte isolation kit (cat: 130-091-153) and incubated at 4-8° C. for 10 min Monocytes (500,000/well) were seeded in 12 multi well plate and cultured for 7 days in RPMI+L-Glutamin+FBS (10%) and PenStrep and h-MCSF (20 ng/mL) to convert them into macrophages. […] TNF-α, IL-1β and IL-6 protein were detected by means of the sandwich ELISA method using an ELISA kit for human cytokines (Biolegend, San Diego, CA, USA) according to the manufacturer's instructions.

[2] = system: cerulein-induced mouse model; experiment: Acute pancreatitis, cerulein-induced mouse model; type: in vivo; conditions: for Serum amylase: 1 and 2 mg/kg sc 30 min after first cerulein injection, 4 hours; for TNF-α protein in the pancreas: 1 and 2 mg/kg sc, 4 hours after first cerulein injection
Experimental: The most commonly used animal model for acute pancreatitis is the cerulein-induced mouse model (Su et al., 2006). Cerulein is a cholecystokinin analogue that produces hyperstimulation of the pancreatic acinar cells at supramaximal dosage. The acute necrotizing pancreatitis produced is histopathologically similar to acute human pancreatitis (Van Acker et at, 2007). Groups of 10 Balb/C male mice weighing 24 gm were injected intraperitoneally once every hour for 4 hours with cerulean (50 μg/kg) suspended in saline. AN1297 (1 or 2 mg/kg) or resolvin D (1 mg/kg) or saline that were injected sc. 30 min after the first cerulean injection. Mice were killed by exsanguination at 4 hours after the first cerulein injection. Blood samples or measurement of amylase were obtained by direct intracardiac puncture. Pancreases were removed immediately, flash frozen in liquid nitrogen and stored −80° C. until assayed, for TNF-α protein by means of the sandwich ELISA method using an ELISA kit (Biolegend, San Diego, CA, USA) according to the manufacturer's instructions. Serum amylase activity was determined using a colorimetric assay kit (ab102523, Abcam). The values of serum amylase activity are expressed as units per litre (U/l).

[3] = system: IL-6 in human macrophages; experiment: IL-6 in human macrophages after elevation by LPS (ELISA); type: cell-based; conditions: 24 h after LPS; 1 × 10^−9 M
Experimental: Blood (20 ml was collected from healthy human subjects on the day of the experiment in anti-coagulant tubes and diluted in PBS 1:1. Ficol (12 mL) was added into the bottom of the tube, centrifuged slowly for 30 min at 1400 g and peripheral blood mononuclear cells (PBMCs) were separated. Monocytes were isolated by addition of 15 ml of MACS buffer. After centrifugation at 1400 g for 10 min at 4° C., the supernatant fluid was removed, monocytes were isolated by means of a MACS-Monocyte isolation kit (cat: 130-091-153) and incubated at 4-8° C. for 10 min Monocytes (500,000/well) were seeded in 12 multi well plate and cultured for 7 days in RPMI+L-Glutamin+FBS (10%) and PenStrep and h-MCSF (20 ng/mL) to convert them into macrophages. Compounds (AN1284, AN1297, AN1298, 1×10^−10 or 1×10^−9 M) were added 2 h before LPS (100 μg/mL Sigma Ltd. phenol extracted from Escherichia coli 055: B5) and incubated at 37° C., 5% CO2. TNF-α, IL-1β and IL-6 protein were detected by means of the sandwich ELISA method using an ELISA kit for human cytokines (Biolegend, San Diego, CA, USA) according to the manufacturer's instructions.

LPS-injected mice = experiment: Pro-inflammatory cytokine proteins in tissues of mice injected with LPS; type: in vivo, mouse; conditions: sc, 2-3 doses, 15 min before LPS 10 mg/kg ip; 4 h after LPS
Experimental: Male Balb/c OlaHsd mice (aged 7-8 weeks) were injected subcutaneously (sc) with saline, or with AN1279, AN1283, AN1284, AN1287 and AN1298 at doses that contain approximately the equivalent amount of the base. LPS (10 mg/kg) was given by intraperitoneal injection 15 min later. The mice were sacrificed 4 h later, which was previously shown to be the optimal time for elevation of cytokines in the spleen and brain. The spleen, brain and liver were rapidly removed and frozen in liquid nitrogen and stored at −80° C. until use. A piece of the cortex was taken for gene analysis of cytokines. Blood was collected into heparinized tubes and plasma separated by centrifugation. For measurement of cytokine protein, tissues were weighed and diluted in PBS containing 0.8% NaCl, 0.144% NaHPO4, 0.024% KH2PO4 and protease inhibitor cocktail (Sigma) and homogenised in an Ultra-TURRAX® homogeniser at a speed of 24,000 rpm and centrifuged at 14000 g for 15 min at 4° C. Cytokines were detected by means of Elisa kits (Biolegend) and protein concentration was determined by a bicinchoninic acid protein assay kit (Thermo Scientific, IL, USA).

[4] = listed as AN1927, Hydrochloride

Compound	Reduction in caspase 3 activity compared with the other compounds (Caspase 3)	Reduction (%) ± STD compared to LPS alone, TNF-α ([1]; 6 h after LPS, 1 × 10^−9 M) [%]	Reduction (%) ± STD compared to LPS alone, TNF-α ([1]; 12 h after LPS, 1 × 10^−10 M) [%]	Reduction (%) ± STD compared to LPS alone, TNF-α ([1]; 12 h after LPS, 1 × 10^−11 M) [%]	Reduction (%) ± STD compared to LPS alone, TNF-α ([1]; 24 h after LPS, 1 × 10^−9 M) [%]	Serum amylase ([2]; Hydrochloride)	Serum amylase [2, 4]	TNF-α protein in the pancreas ([2]; Hydrochloride)	TNF-α protein in the pancreas [2, 4]	Reduction (%) ± STD compared to LPS alone, IL-6 [3] [%]	IL-6 protein in the brain (LPS-injected mice)	IL-6 protein in the liver (LPS-injected mice)
NCCCN1CCc2ccccc21 [AN1264, di-p-Toluenesulfonate]	less reduction in caspase 3 activity than the other compounds	–	–	–	–	–	–	–	–	–	–	–
COC(=O)CCN1CCc2ccc(OCc3ccccc3)cc21.Cc1ccc(S(=O)(=O)O)cc1 [AN1279, Methyl 3-(6-(Benzyloxy)indolin-1-yl)propanoate p-Toluenesulfonate]	less reduction in caspase 3 activity than the other compounds	–	–	–	–	–	–	–	–	–	–	–
COC(=O)CCN1CCc2cc(OC)ccc21.Cl [AN1297, Methyl 3-(5-Methoxyindolin-1-yl)propanoate Hydrochloride]	–	55.7 ± 11.5	25.1 ± 10.9	22.0 ± 7.2	71.1 ± 8.9	decreased significantly	Dose related reduction	dose-dependently reduced	Dose related reduction	62.4 ± 16.5	reduction	reduction

— patent publication US12599584B2, “Indoline derivatives, compositions comprising them and uses thereof” (Yissum Research Development Company of The Hebrew …, priority 2016, dated 2026)
